Test results from US20150177246A1, “FUSION GENE OF CEP55 GENE AND RET GENE” (NATIONAL CANCER CENTER, priority 2012, published 2015).

Tested on: downstream signals (STAT3, AKT, MAPK) of the CEP55-RET fusion polypeptide in NIH-3T3 cells
Test: Western blotting of downstream signals of the RET fusion polypeptide after serum starvation and culture with a RET tyrosine kinase inhibitor
Type: cell-based, murine
Conditions: inhibitor 1 μM in medium after serum starvation; NIH-3T3 cells expressing wild-type CEP55-RET; FIG. 7
Description: In this figure, “CEP55-RET” represents the results for cell lines expressing the CEP55-RET fusion polypeptide, and “KIF5B-RET” represents the results for cell lines expressing the KIF5B-RET fusion polypeptide. […] The “STAT3” and “p-STAT3 (Y705)” rows show the results of detecting STAT3 and phosphorylated STAT3, respectively. The “AKT” and “p-AKT (S473)” show the results of detecting AKT and phosphorylated AKT, respectively. The “MAPK” and “p-MAPK (T202/Y204)” rows show the results of detecting MAPK and phosphorylated MAPK, respectively.
Next, normal murine fibroblast line NIH-3T3 cells were infected with each of the thus-prepared retroviral vectors to obtain cell lines stably expressing the wild-type or the mutated CEP55-RET fusion polypeptide.
In addition, the cell lines stably expressing the wild-type or the mutated RET fusion polypeptide were each cultured in a liquid medium, subjected to serum starvation, and then cultured again with the medium being replaced with the one supplemented with a RET tyrosine kinase inhibitor (vandetanib or XL184). Protein from each of the thus-obtained cell lines was extracted and subjected to Western blotting analysis using antibodies against various phosphorylated or unphosphorylated proteins to thereby analyze the downstream signals of the RET fusion polypeptides.

**Q.** `COc1cc2c(Nc3ccc(Br)cc3F)ncnc2cc1OCC1CCN(C)CC1` [V, 4-(4-bromo-2-fluoroanilino)-6-methoxy-7-(1-methylpiperidin-4-ylmethoxy)quinazoline] was tested. Which “phosphorylation of MAPK, p-MAPK (T202/Y204705)” value did it give?
**A.** significantly suppressed

**Q.** And the “phosphorylation of STATS, p-STAT3 (Y705)” value?
**A.** significantly suppressed
